Measured values taken from BigSolDB 2.1.

c1ccc(-c2cc3ccccc3[nH]2)cc1
Details	solubility (mole fraction)
in 1,2-dichloroethane, 296.95 K	0.0186
in 1,2-dichloroethane, 302.45 K	0.0236
in 1,2-dichloroethane, 308.55 K	0.0285
in 1,2-dichloroethane, 313.15 K	0.0325
in 1,2-dichloroethane, 318.25 K	0.0373
in 1,2-dichloroethane, 323.25 K	0.0422
in 1,2-dichloroethane, 329.05 K	0.0498
in 1,2-dichloroethane, 334.05 K	0.0575
in 1,2-dichloroethane, 338.55 K	0.0666
in 1,4-dioxane, 289.05 K	0.0403
in 1,4-dioxane, 293.15 K	0.0507
in 1,4-dioxane, 299.15 K	0.0625
in 1,4-dioxane, 303.95 K	0.0735
in 1,4-dioxane, 308.95 K	0.0903
in 1,4-dioxane, 313.65 K	0.114
in 1,4-dioxane, 318.65 K	0.145
in 1,4-dioxane, 324.05 K	0.172
in 1,4-dioxane, 329.35 K	0.201
in 1,4-dioxane, 334.15 K	0.239
in MTBE, 289.05 K	0.0337
in MTBE, 293.15 K	0.0351
in MTBE, 299.15 K	0.0383
in MTBE, 303.95 K	0.0406
in MTBE, 308.95 K	0.0428
in MTBE, 313.65 K	0.0452
in MTBE, 318.65 K	0.049
in MTBE, 324.05 K	0.0522
in MTBE, 329.35 K	0.0558
in MTBE, 334.15 K	0.0596
in THF, 289.05 K	0.187
in THF, 293.15 K	0.194
in THF, 299.15 K	0.203
in THF, 303.95 K	0.211
in THF, 308.95 K	0.218
in THF, 313.65 K	0.225
in THF, 318.65 K	0.232
in THF, 324.05 K	0.24
in THF, 329.35 K	0.248
in THF, 334.15 K	0.256
in acetone, 289.05 K	0.0951
in acetone, 293.15 K	0.106
in acetone, 299.15 K	0.111
in acetone, 303.95 K	0.122
in acetone, 308.95 K	0.132
in acetone, 313.65 K	0.142
in acetone, 318.65 K	0.15
in acetone, 324.05 K	0.16
in acetone, 329.35 K	0.172
in acetonitrile, 289.05 K	0.0144
in acetonitrile, 293.15 K	0.0164
in acetonitrile, 299.15 K	0.02
in acetonitrile, 303.95 K	0.0237
in acetonitrile, 308.95 K	0.0283
in acetonitrile, 313.65 K	0.0328
in acetonitrile, 318.65 K	0.038
in acetonitrile, 324.05 K	0.0446
in acetonitrile, 329.35 K	0.0533
in acetonitrile, 334.15 K	0.0604
in ethanol, 296.95 K	0.0109
in ethanol, 302.45 K	0.012
in ethanol, 308.55 K	0.014
in ethanol, 313.15 K	0.0154
in ethanol, 318.25 K	0.0173
in ethanol, 323.25 K	0.0187
in ethanol, 329.05 K	0.0217
in ethanol, 334.05 K	0.0249
in ethanol, 338.55 K	0.0274
in ethyl acetate, 289.05 K	0.0634
in ethyl acetate, 293.15 K	0.0694
in ethyl acetate, 299.15 K	0.0761
in ethyl acetate, 303.95 K	0.0814
in ethyl acetate, 308.95 K	0.0879
in ethyl acetate, 313.65 K	0.0951
in ethyl acetate, 318.65 K	0.101
in ethyl acetate, 324.05 K	0.11
in ethyl acetate, 329.35 K	0.119
in ethyl acetate, 334.15 K	0.128
in isopropanol, 296.95 K	0.00786
in isopropanol, 302.45 K	0.00963
in isopropanol, 308.55 K	0.0115
in isopropanol, 313.15 K	0.0125
in isopropanol, 318.25 K	0.0148
in isopropanol, 323.25 K	0.0168
in isopropanol, 329.05 K	0.0185
in isopropanol, 334.05 K	0.0218
in isopropanol, 338.55 K	0.0233
in methanol, 296.95 K	0.00571
in methanol, 302.45 K	0.00709
in methanol, 308.55 K	0.00835
in methanol, 313.15 K	0.00941
in methanol, 318.25 K	0.0107
in methanol, 323.25 K	0.0119
in methanol, 329.05 K	0.0136
in methanol, 334.05 K	0.016
in methanol, 338.55 K	0.017
in n-butanol, 296.95 K	0.0123
in n-butanol, 302.45 K	0.0141
in n-butanol, 308.55 K	0.0163
in n-butanol, 313.15 K	0.0181
in n-butanol, 318.25 K	0.0212
in n-butanol, 323.25 K	0.0241
in n-butanol, 329.05 K	0.0276
in n-butanol, 334.05 K	0.0311
in n-butanol, 338.55 K	0.0357
in n-propanol, 296.95 K	0.0104
in n-propanol, 302.45 K	0.012
in n-propanol, 308.55 K	0.0134
in n-propanol, 313.15 K	0.0156
in n-propanol, 318.25 K	0.0177
in n-propanol, 323.25 K	0.0206
in n-propanol, 329.05 K	0.0233
in n-propanol, 334.05 K	0.0269
in n-propanol, 338.55 K	0.03
in sec-butanol, 296.95 K	0.00879
in sec-butanol, 302.45 K	0.0111
in sec-butanol, 308.55 K	0.014
in sec-butanol, 313.15 K	0.0157
in sec-butanol, 318.25 K	0.0182
in sec-butanol, 323.25 K	0.022
in sec-butanol, 329.05 K	0.0271
in sec-butanol, 334.05 K	0.0307
in sec-butanol, 338.55 K	0.0353
in toluene, 289.05 K	0.00911
in toluene, 293.15 K	0.0101
in toluene, 299.15 K	0.0122
in toluene, 303.95 K	0.0141
in toluene, 308.95 K	0.0167
in toluene, 313.65 K	0.0191
in toluene, 318.65 K	0.0222
in toluene, 324.05 K	0.0255
in toluene, 329.35 K	0.0298
in toluene, 334.15 K	0.0342
